In patent US10463644B2, “Uses of sesquiterpene lactone compounds and their derivatives in drugs preparation” (ACCENDATECH, priority 2013, dated 2019):
Like-named read-outs stand apart in the source and are kept apart here.

How the values were obtained:
cancer cells = test: Survival rate of cancer cells after test compound is added (flow cytometry, Annexin V-FITC/PI, clinical specimen); type: cell-based, patient; conditions: Homo sapiens, 18 h, read-out: Survival rate (%) All cells (Stem cells and ordinary cells)
How it was run: (§1)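 Steps: density-gradient isolation of mononuclear cells from fresh or cryopreserved clinical samples; 18-hour compound exposure at 1×10^6 cells/mL; staining for stem-cell surface markers, then Annexin V-FITC and PI; flow cytometric apoptosis analysis.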

cancer stem cells = test: Survival rate of cancer stem cells after test compound is added (flow cytometry, Annexin V-FITC/PI, clinical specimen); type: cell-based, patient; conditions: Homo sapiens, 18 h
How it was run: as §1

normal cells = test: Survival rate of normal cells after test compound is added (flow cytometry, Annexin V-FITC/PI); type: cell-based; conditions: 18 h
How it was run: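 Mononuclear cells from fresh or cryopreserved clinical samples, isolated by Ficoll gradient and held in serum-free IMDM (1×10^6/mL), received compound for 18 h. After labelling with marker antibodies (CD34+CD38+ for AML), Annexin V-FITC and PI staining was analysed by flow cytometry.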

[1] = test system: IL-1β secreted by synoviocyte; test: Content of IL-1β in culture supernatant of synoviocyte of RA model rats given test compound; type: in vivo; conditions: rat RA model, dose 30 mg/kg.2d; normal control 0.16 ± 0.034, NaCl 0.49 ± 0.136
How it was run: (§2)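 Read-out: TNF-α, PGE2 and IL-1β levels in supernatant from cultured synoviocytes. Cells came from RA model rats treated with compound at 30 mg/kg.2d, and from NaCl-treated and normal control rats.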

[2] = test system: PGE2 secreted by synoviocyte; test: Content of PGE2 in culture supernatant of synoviocyte of RA model rats given test compound; type: in vivo; conditions: rat RA model, dose 30 mg/kg.2d; normal control 8.34 ± 1.29, NaCl 32.44 ± 10.32
How it was run: as §2

[3] = Head and neck squamous cell carcinomas
[4] = read-out: Survival rate (%) All cells (Stem cells and ordinary cells)
[5] = read-out: Survival rate (%) Stem cells

Structure (SMILES): C=C1C(=O)O[C@@H]2[C@H]3C(C)=CC[C@@]34O[C@@]4(C)CC[C@@H]12 [Compound 50]
- viability at 10 µM (cancer cells; AML): 57%
- viability at 20 µM (cancer cells; AML): 47%
- viability at 10 µM (cancer cells; Brain glioma): 74%
- viability at 20 µM (cancer cells; Brain glioma): 58%
- viability at 10 µM (cancer cells; Brain tumor): 72%
- viability at 20 µM (cancer cells; Brain tumor): 63%
- viability at 10 µM (cancer cells; Breast cancer): 75%
- viability at 20 µM (cancer cells; Breast cancer): 65%
- viability at 10 µM (cancer cells; CLL): 58%
- viability at 20 µM (cancer cells; CLL): 47%
- viability at 10 µM (cancer cells; CML): 64%
- viability at 20 µM (cancer cells; CML): 58%
- viability at 10 µM (cancer cells; Children hepatoblastoma): 55%
- viability at 20 µM (cancer cells; Children hepatoblastoma): 47%
- viability at 10 µM (cancer cells; Colon adenocarcinoma): 55%
- viability at 20 µM (cancer cells; Colon adenocarcinoma): 49%
- viability at 10 µM (cancer cells; Colorectal cancer): 76%
- viability at 20 µM (cancer cells; Colorectal cancer): 66%
- viability at 10 µM (cancer cells; Gastric cancer): 54%
- viability at 20 µM (cancer cells; Gastric cancer): 48%
- viability at 10 µM (cancer cells; Gastrointestinal tumor): 64%
- viability at 20 µM (cancer cells; Gastrointestinal tumor): 53%
- viability at 10 µM (cancer cells; Glioma): 74%
- viability at 20 µM (cancer cells; Glioma): 56%
- viability at 10 µM (cancer cells; [3]): 67%
- viability at 20 µM (cancer cells; [3]): 58%
- viability at 10 µM (cancer cells; Laryngeal cancer): 75%
- viability at 20 µM (cancer cells; Laryngeal cancer): 64%
- viability at 10 µM (cancer cells; Liver cancer): 66%
- viability at 20 µM (cancer cells; Liver cancer): 54%
- viability at 10 µM (cancer cells; Lung adenocarcinoma): 57%
- viability at 20 µM (cancer cells; Lung adenocarcinoma): 47%
- viability at 10 µM (cancer cells; Lung cancer): 54%
- viability at 20 µM (cancer cells; Lung cancer): 47%
- viability at 10 µM (cancer cells; Malignant melanoma): 82%
- viability at 20 µM (cancer cells; Malignant melanoma): 66%
- viability at 10 µM (cancer cells; Nasopharynx cancer): 54%
- viability at 20 µM (cancer cells; Nasopharynx cancer): 48%
- viability at 10 µM (cancer cells; Ovarian cancer): 77%
- viability at 20 µM (cancer cells; Ovarian cancer): 67%
- viability at 10 µM (cancer cells; Pancreatic cancer): 64%
- viability at 20 µM (cancer cells; Pancreatic cancer): 49%
- viability at 10 µM (cancer cells; Prostate cancer): 66%
- viability at 20 µM (cancer cells; Prostate cancer): 54%
- viability at 10 µM (cancer cells; Retinoblastoma): 65%
- viability at 20 µM (cancer cells; Retinoblastoma): 53%
- viability at 10 µM (cancer cells; Skin cancer): 66%
- viability at 20 µM (cancer cells; Skin cancer): 58%
- viability at 10 µM (cancer stem cells; AML): 45%
- viability at 20 µM (cancer stem cells; AML): 36%
- viability at 10 µM (cancer stem cells; Brain glioma): 63%
- viability at 20 µM (cancer stem cells; Brain glioma): 47%
- viability at 10 µM (cancer stem cells; Brain tumor): 62%
- viability at 20 µM (cancer stem cells; Brain tumor): 54%
- viability at 10 µM (cancer stem cells; Breast cancer): 64%
- viability at 20 µM (cancer stem cells; Breast cancer): 52%
- viability at 10 µM (cancer stem cells; CLL): 47%
- viability at 20 µM (cancer stem cells; CLL): 36%
- viability at 10 µM (cancer stem cells; CML): 57%
- viability at 20 µM (cancer stem cells; CML): 46%
- viability at 10 µM (cancer stem cells; Children hepatoblastoma): 42%
- viability at 20 µM (cancer stem cells; Children hepatoblastoma): 34%
- viability at 10 µM (cancer stem cells; Colon adenocarcinoma): 43%
- viability at 20 µM (cancer stem cells; Colon adenocarcinoma): 35%
- viability at 10 µM (cancer stem cells; Colorectal cancer): 64%
- viability at 20 µM (cancer stem cells; Colorectal cancer): 55%
- viability at 10 µM (cancer stem cells; Gastric cancer): 45%
- viability at 20 µM (cancer stem cells; Gastric cancer): 37%
- viability at 10 µM (cancer stem cells; Gastrointestinal tumor): 55%
- viability at 20 µM (cancer stem cells; Gastrointestinal tumor): 44%
- viability at 10 µM (cancer stem cells; Glioma): 62%
- viability at 20 µM (cancer stem cells; Glioma): 45%
- viability at 10 µM (cancer stem cells; [3]): 56%
- viability at 20 µM (cancer stem cells; [3]): 47%
- viability at 10 µM (cancer stem cells; Laryngeal cancer): 64%
- viability at 20 µM (cancer stem cells; Laryngeal cancer): 53%
- viability at 10 µM (cancer stem cells; Liver cancer): 53%
- viability at 20 µM (cancer stem cells; Liver cancer): 46%
- viability at 10 µM (cancer stem cells; Lung adenocarcinoma): 46%
- viability at 20 µM (cancer stem cells; Lung adenocarcinoma): 36%
- viability at 10 µM (cancer stem cells; Lung cancer): 43%
- viability at 20 µM (cancer stem cells; Lung cancer): 33%
- viability at 10 µM (cancer stem cells; Malignant melanoma): 64%
- viability at 20 µM (cancer stem cells; Malignant melanoma): 54%
- viability at 10 µM (cancer stem cells; Nasopharynx cancer): 44%
- viability at 20 µM (cancer stem cells; Nasopharynx cancer): 37%
- viability at 10 µM (cancer stem cells; Ovarian cancer): 62%
- viability at 20 µM (cancer stem cells; Ovarian cancer): 55%
- viability at 10 µM (cancer stem cells; Pancreatic cancer): 53%
- viability at 20 µM (cancer stem cells; Pancreatic cancer): 43%
- viability at 10 µM (cancer stem cells; Prostate cancer): 54%
- viability at 20 µM (cancer stem cells; Prostate cancer): 41%
- viability at 10 µM (cancer stem cells; Retinoblastoma): 54%
- viability at 20 µM (cancer stem cells; Retinoblastoma): 44%
- viability at 10 µM (cancer stem cells; Skin cancer): 57%
- viability at 20 µM (cancer stem cells; Skin cancer): 43%
- viability at 10 µM (normal cells; [4]): 92%
- viability at 10 µM (normal cells; [5]): 90%
- viability at 20 µM (normal cells; [4]): 91%
- viability at 20 µM (normal cells; [5]): 89%
- Content of IL-1β in culture supernatant of synoviocyte (x ± s) [1]: 0.34 ± 0.061 ng/mL
- Content of PGE2 in culture supernatant of synoviocyte (x ± s) [2]: 19.83 ± 1.78 ng/mL
